The values below are quoted from earlier work in US7838668B2, “Method for crystallizing sucralose” (JK Sucralose Inc., priority 2006, dated 2010).

For this data set the following is noted: relative to sucrose; background statement, no test described.

Regarding `OC[C@H]1O[C@H](O[C@]2(CCl)O[C@H](CCl)[C@@H](O)[C@@H]2O)[C@H](O)[C@@H](O)[C@H]1Cl` [sucralose], the sweetness is reported as 600 times of sucrose.
